From patent publication US5225416A, “1,2,3,6-tetrahydropyridine derivatives useful for improving cerebral blood circulation” (Richter Gedeon Vegyeszeti Termekek Gyara Rt., priority 1990, dated 1993)

What was measured:
Assay type in all cases: in vivo
male (CFLP LATI) mice [1] = test: Hypobaric hypoxia (HH), antihypoxic effect in mice; conditions: Mus musculus, po, read-out: ED50 hypobaric hypoxia
Description: (§1) Male (CFLP LATI) mice weighing 24-26 g and male spontaneous hypertensive rats (SHR) weighing 160-180 g were used as test animals. The test compounds were administered orally in a volume of 10 ml/kg 1 hour before the test.
Animals surviving by 100% longer than the average survival of the control group were considered as protected.

male (CFLP LATI) mice [2] = test: Anoxic asphyxia (asphyxial anoxia), antihypoxic effect in mice; conditions: Mus musculus, po, read-out: ED50 asphyxial anoxia
Description: as §1
(§2) The mice were treated after 16 hours fasting with the oral dosage of the test compounds. 1 hour after the treatment the animals were placed to 100 ml sealed glasses and the survival time of the animals was measured. The groups consisting of 10 animals and treated with the test compounds were considered protected if the average survival time was by 30 percent longer than the survival of the group treated with placebo. From the percentage of the surviving animals the 50% effective dosage (ED50) was calculated by probit analysis.

[3] = test system: male spontaneous hypertensive rats (SHR); test: Hypobaric hypoxia in SHR rats; conditions: Rattus norvegicus, po, 1 hour before the test, 22.66 kPa, protected = survival 30 percent longer, 95% fiducial limit on next line
Description: as §1
(§3) The rats were placed to a 6-liter exsiccator 1 hour after pretreatment to each exsiccator 2 rats were placed. The pressure was reduced in the exsiccator within 20 seconds to 22.66 kPa (170 Hgmm) and the survival time was measured from this time on until the last breathing movement. Animals which survived by 30 percent longer than the average survival of the control group were considered as protected. From the percentage of the protected animals the ED50 i.e. the 50% effective dosage was calculated by probit analysis with the pertaining 95% fiducial limit.

male (CFLP LATI) mice [4] = test: Cytotoxic hypoxia (KCN), antihypoxic effect in mice; conditions: Mus musculus, po, read-out: ED50 cytotoxic hypoxia
[5] = test system: mice and spontaneous hypertensive rats; test: Hypoxic models taken together (asphyxial anoxia, hypobaric hypoxia, cytotoxic hypoxia, hypobaric hypoxia SHR)
Description: as §1, §2
After 16 hours of fasting and 1 hour of pretreatment the animals were placed to a 6-liter exsiccator and the pressure was reduced within 20 seconds to 22.66 kPa (170 Hgmm), and from this time on the survival time was measured until the last breathing movement. Animals surviving by 100% longer than the average survival of the control group were considered as protected.
The animals were treated after 1 hour pretreatment with an i.v. dosage of 5 mg/kg potassium cyanide. The survival time was measured from the administration of potassium cyanide to the last breathing movement. The protected condition was determined according to the method described for anoxic asphyxia.
as §3
For testing the active ingredients various forms of hypoxia were used. In case of asphyxial anoxia the complete loss of the oxygen supply, at hypobaric hypoxia the reducing of the oxygen saturation condition of the haemoglobin and in case of cytotoxic hypoxia the blocking of the mytochondrial breathing enzime cause a functional disorganisation and necrosis of the cells, even death in otherwise healthy mice. The spontaneous hypertensive rats are more sensitive to the hypoxial influences than the normotensive animals as the survival chance of a person suffering from hypertension is also worse after suffering from hypoxial influences.

[6] = 1 hour before the test, mice, 22.66 kPa, protected = survival 100% longer, 95% fiducial limit on next line
[7] = 1 hour before the test, mice, protected = survival 30 percent longer, probit analysis
[8] = 1 hour before the test, mice, KCN 5 mg/kg i.v., 95% fiducial limit on next line

SMILES | ED50 (male (CFLP LATI) mice [1]; [6]) | ED50 (male (CFLP LATI) mice [2]; [7]) | ED50 [3] | ED50 (male (CFLP LATI) mice [4]; [8]) | ED50 (male (CFLP LATI) mice [1]) | ED50 (male (CFLP LATI) mice [2]) | ED50 (male (CFLP LATI) mice [4]) | dosage relative to that of vincamine ([5]; antihypoxic effect on two models) | antihypoxic effect ([5]; number of models on which the effect could be proved) | effect in all hypoxic models used ([5]; all hypoxic models, in words) | survival time of the animals ([5]; all hypoxic models, in words)
OC(CCN1CC=C(c2ccccc2)CC1)c1ccc(Cc2ccc(Cl)cc2)cc1 (stereo not drawn) [Example 0207724] | 27.5 mg/kg | 50 mg/kg | 8.2 mg/kg | 17.5 mg/kg | – | – | – | – | – | – | –
NC(=O)CN1CCCC1=O [Piracetam, 2-oxo-1-pyrrolidinyl-acetic amide] | – | – | – | – | 100 mg/kg | 100 mg/kg | 132 mg/kg | 5-10 times | could be proved on two models | – | –
CC[C@]12CCCN3CCc4c(n(c5ccccc45)[C@@](O)(C(=O)OC)C1)[C@@H]32 [Vincamin, (+)-14β-hydroxy-14α-methoxy-carbonyl-14,15-dihydro-eburnamenine] | 60.7 mg/kg | 51.1 mg/kg | 27.9 mg/kg | 27 mg/kg | – | – | – | – | – | effective | prolonged
